The text below walks through data of BindingDB's records for doi:10.1074/jbc.M409068200 (Genentech, 2005).

Assay in all cases: Serine Protease Inhibition Assay
What all share (conditions): pH 7.8; 22 °C

Assay [1] deals with Coagulation factor X (Homo sapiens, UniProt P00742). The procedure:
(§1) The enzyme reactions were initiated by the addition of substrate, and the color developed from the release of p-nitroanilide from each chromogenic substrate was monitored continuously for 5 min at 405 nm on a microtiter plate reader. […] The apparent Ki values were then calculated according to the Cheng-Prusoff equation: Ki = IC50/1 + [S]/Km.

In assay [2] the target is Plasma kallikrein (Homo sapiens, UniProt P03952). As for the experimental part:
as §1

The target in assay [3] is Plasminogen (Homo sapiens, UniProt P00747). As for the experimental part: as §1
Plasminogen, sequence (P00747 97-580 limits assumed): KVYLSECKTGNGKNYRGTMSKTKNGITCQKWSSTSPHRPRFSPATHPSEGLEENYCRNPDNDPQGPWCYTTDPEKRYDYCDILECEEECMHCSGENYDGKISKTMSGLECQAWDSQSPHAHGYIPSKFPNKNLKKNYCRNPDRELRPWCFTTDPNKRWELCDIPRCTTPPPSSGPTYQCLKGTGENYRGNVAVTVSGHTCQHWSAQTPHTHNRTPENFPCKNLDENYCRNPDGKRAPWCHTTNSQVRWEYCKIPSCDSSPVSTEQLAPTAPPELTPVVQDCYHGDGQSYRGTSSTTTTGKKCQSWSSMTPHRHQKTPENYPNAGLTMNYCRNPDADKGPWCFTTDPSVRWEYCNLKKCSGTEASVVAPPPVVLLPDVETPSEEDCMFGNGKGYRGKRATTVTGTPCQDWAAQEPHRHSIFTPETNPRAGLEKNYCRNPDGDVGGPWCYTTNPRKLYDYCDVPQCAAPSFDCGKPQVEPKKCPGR
Plasminogen, sequence (P00747 581-810 limits assumed): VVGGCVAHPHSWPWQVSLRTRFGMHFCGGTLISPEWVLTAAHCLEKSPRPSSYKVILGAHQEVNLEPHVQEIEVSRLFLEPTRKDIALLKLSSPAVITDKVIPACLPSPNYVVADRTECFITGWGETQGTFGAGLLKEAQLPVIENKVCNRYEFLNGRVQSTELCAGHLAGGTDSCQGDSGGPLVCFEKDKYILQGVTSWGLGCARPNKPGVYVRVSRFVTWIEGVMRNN
Assay [4] concerns the target Prothrombin (Homo sapiens, UniProt P00734). The procedure: as §1
Assay [5] has as its target T1, Serine protease 1 (Bos taurus, UniProt P00760).
T1 sequence (P00760 whole entry): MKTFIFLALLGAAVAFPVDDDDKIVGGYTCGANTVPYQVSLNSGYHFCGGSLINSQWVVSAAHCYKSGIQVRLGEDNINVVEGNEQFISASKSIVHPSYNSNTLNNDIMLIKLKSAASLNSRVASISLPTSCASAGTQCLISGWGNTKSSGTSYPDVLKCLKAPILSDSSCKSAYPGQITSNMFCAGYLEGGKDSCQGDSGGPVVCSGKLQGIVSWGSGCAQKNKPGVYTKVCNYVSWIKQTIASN
The procedure: as §1

Assay [6] deals with Tissue-type plasminogen activator (Homo sapiens, UniProt P00750). The procedure:
as §1

Assay [7] concerns the target Urokinase-type plasminogen activator (Homo sapiens, UniProt P00749). As for the experimental part:
as §1

The target of assay [8] is Vitamin K-dependent protein C (Homo sapiens, UniProt P04070). As for the experimental part:
as §1

Coagulation factor X, sequence (P00742 41-179 limits assumed): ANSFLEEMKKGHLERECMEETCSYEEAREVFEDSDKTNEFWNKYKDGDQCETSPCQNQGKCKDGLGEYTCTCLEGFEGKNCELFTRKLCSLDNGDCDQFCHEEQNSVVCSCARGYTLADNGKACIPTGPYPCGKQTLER
Coagulation factor X, sequence (P00742 235-488 limits assumed): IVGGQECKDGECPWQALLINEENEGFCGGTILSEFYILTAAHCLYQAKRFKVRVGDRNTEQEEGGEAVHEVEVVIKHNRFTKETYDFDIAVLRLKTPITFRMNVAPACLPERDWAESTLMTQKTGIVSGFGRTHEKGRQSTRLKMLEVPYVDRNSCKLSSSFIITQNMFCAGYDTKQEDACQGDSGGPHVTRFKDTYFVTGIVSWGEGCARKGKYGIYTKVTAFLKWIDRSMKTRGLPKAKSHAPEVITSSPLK
Plasma kallikrein, sequence (P03952 20-390 limits assumed): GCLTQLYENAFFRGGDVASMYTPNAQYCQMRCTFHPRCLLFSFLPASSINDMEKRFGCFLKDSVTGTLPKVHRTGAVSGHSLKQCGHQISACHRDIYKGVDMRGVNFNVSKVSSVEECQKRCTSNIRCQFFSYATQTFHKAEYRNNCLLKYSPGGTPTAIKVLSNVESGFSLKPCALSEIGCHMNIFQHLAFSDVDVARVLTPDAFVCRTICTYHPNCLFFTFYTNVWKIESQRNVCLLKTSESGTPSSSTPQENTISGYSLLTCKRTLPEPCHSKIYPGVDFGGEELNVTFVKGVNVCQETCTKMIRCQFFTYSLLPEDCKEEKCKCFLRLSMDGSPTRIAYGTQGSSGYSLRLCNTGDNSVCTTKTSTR
Plasma kallikrein, sequence (P03952 391-638 limits assumed): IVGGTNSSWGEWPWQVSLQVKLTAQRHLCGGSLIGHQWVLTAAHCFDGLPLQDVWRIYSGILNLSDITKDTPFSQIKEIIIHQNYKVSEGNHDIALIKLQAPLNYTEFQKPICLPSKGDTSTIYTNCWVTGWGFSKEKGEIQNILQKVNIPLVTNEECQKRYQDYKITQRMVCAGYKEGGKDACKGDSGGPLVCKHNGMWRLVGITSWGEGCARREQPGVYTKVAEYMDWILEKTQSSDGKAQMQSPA
Vitamin K-dependent protein C, sequence (P04070 43-197 limits assumed): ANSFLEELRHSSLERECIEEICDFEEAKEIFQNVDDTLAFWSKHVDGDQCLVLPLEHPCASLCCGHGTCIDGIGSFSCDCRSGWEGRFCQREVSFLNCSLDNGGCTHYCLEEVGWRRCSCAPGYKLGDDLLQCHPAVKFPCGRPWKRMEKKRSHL
Vitamin K-dependent protein C, sequence (P04070 212-461 limits assumed): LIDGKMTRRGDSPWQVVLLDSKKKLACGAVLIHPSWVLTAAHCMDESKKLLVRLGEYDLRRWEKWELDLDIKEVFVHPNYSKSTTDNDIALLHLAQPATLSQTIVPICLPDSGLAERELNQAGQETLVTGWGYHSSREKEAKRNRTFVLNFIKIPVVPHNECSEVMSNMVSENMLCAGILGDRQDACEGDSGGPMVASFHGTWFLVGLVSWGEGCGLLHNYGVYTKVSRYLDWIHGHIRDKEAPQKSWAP
Tissue-type plasminogen activator, sequence (P00750 whole entry): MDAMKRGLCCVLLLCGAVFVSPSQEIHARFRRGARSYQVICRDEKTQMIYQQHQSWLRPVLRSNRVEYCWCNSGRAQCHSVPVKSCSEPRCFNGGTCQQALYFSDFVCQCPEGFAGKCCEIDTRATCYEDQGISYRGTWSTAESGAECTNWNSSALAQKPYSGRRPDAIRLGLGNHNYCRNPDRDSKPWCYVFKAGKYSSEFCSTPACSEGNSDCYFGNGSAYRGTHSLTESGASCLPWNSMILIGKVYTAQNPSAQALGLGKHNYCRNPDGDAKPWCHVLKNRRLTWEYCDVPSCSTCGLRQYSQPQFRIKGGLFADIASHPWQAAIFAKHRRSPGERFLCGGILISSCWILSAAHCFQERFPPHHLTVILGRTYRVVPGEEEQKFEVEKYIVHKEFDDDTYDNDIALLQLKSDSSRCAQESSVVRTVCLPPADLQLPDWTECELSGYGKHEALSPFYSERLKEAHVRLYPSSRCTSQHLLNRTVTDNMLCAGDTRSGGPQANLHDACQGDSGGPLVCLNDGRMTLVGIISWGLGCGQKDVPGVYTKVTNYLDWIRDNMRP

With `CCOc1cc(OCC)c(F)c([C@@H](Nc2ccc(C(=N)N)c(O)c2)C(=O)NS(=O)(=O)c2cccc(N)c2)c1` [(2R)-N-[(3-aminobenzene)sulfonyl]-2-[(4-carbamimidoyl-3-hydroxyphenyl)amino]-2-(3,5-diethoxy-2-fluorophenyl)acetamide], the Ki (in general, a dissociation constant, usually derived from enzyme kinetics or from competition with a known ligand) in assay [1] was over 3.5 µM; in assay [2], 0.114 µM; in assay [3], 1.2 µM; in assay [4] it was 3.6 µM; in assay [5], 4 µM; in assay [6], over 3.9 µM. Moreover, the Ki in assay [7] was over 3.4 µM; in assay [8], 0.087 µM.
